Tests used:
Test in all cases: Test Example 1: herbicidal effect by soil application to paddy field
Format in all cases: in vivo
Conditions in all cases: paddy field soil application; active ingredient 1,000 g per 1 hectare; wettable powder added dropwise to water surface the day after sowing; examined on the 21st day after application
[1] = system: early watergrass (Echinochloa oryzicola Vasing)
Excerpt: (§1) Test Example 1 Test on Herbicidal Effect by Soil Application to Paddy Field In a 100 cm2 plastic pot, paddy field soil was filled. After puddling and leveling, seeds of early watergrass (Echinochloa oryzicola […] (Monochoria vaginalis ([…] Japanese bulrush (Scirpus juncoides Roxb.) were sown, and water was filled to be flooded to a water depth of 3 cm. […] Then, on the 21st day after the application to the plants grew in a greenhouse, the herbicidal effect was examined in accordance with a standard shown in Table 34. [table]

[2] = system: heartshape false pickerelweed (Monochoria vaginalis (Burm.f.) C.Presl)
Excerpt: as §1

[3] = system: Japanese bulrush (Scirpus juncoides Roxb.)
Excerpt: as §1

Compound: CCCS(=O)(=O)Oc1c(C(=O)c2ccc(C(F)(F)F)n(-c3cccc([S+](C)[O-])c3)c2=O)cnn1C (stereo not drawn) [IV-73]
- herbicidal effect, Echinochloa oryzicola Vasing [1]: 4 (70 to less than 90% of herbicidal effect and crop phytotoxicity)
- herbicidal effect, Monochoria vaginalis (Burm. f.) C. Presl [2]: 3 (50 to less than 70% of herbicidal effect and crop phytotoxicity)
- herbicidal effect, Scirpus juncoides Roxb. [3]: 4 (70 to less than 90% of herbicidal effect and crop phytotoxicity)

Compound: CCCS(=O)(=O)Oc1c(C(=O)c2ccc(C(F)(F)F)n(-c3cccc(S(C)(=O)=O)c3)c2=O)cnn1C [IV-75]
- herbicidal effect, Echinochloa oryzicola Vasing [1]: 5 (90% or more of herbicidal effect and crop phytotoxicity)
- herbicidal effect, Monochoria vaginalis (Burm. f.) C. Presl [2]: 5 (90% or more of herbicidal effect and crop phytotoxicity)
- herbicidal effect, Scirpus juncoides Roxb. [3]: 5 (90% or more of herbicidal effect and crop phytotoxicity)

Compound: COc1ccc(-n2c(C(F)(F)F)ccc(C(=O)c3cnn(C)c3O)c2=O)c(OC)c1 [IV-76]
- herbicidal effect, Echinochloa oryzicola Vasing [1]: 4 (70 to less than 90% of herbicidal effect and crop phytotoxicity)
- herbicidal effect, Monochoria vaginalis (Burm. f.) C. Presl [2]: 5 (90% or more of herbicidal effect and crop phytotoxicity)
- herbicidal effect, Scirpus juncoides Roxb. [3]: 5 (90% or more of herbicidal effect and crop phytotoxicity)

Compound: CCCS(=O)(=O)Oc1c(C(=O)c2ccc(C(F)(F)F)n(-c3ccc(Cl)c(OC)c3)c2=O)cnn1C [IV-91]
- herbicidal effect, Echinochloa oryzicola Vasing [1]: 4 (70 to less than 90% of herbicidal effect and crop phytotoxicity)
- herbicidal effect, Monochoria vaginalis (Burm. f.) C. Presl [2]: 4 (70 to less than 90% of herbicidal effect and crop phytotoxicity)
- herbicidal effect, Scirpus juncoides Roxb. [3]: 5 (90% or more of herbicidal effect and crop phytotoxicity)

Compound: COc1cccc(Cn2c(C(F)(F)F)ccc(C(=O)c3cnn(C)c3O)c2=O)c1 [IV-103]
- herbicidal effect, Echinochloa oryzicola Vasing [1]: 4 (70 to less than 90% of herbicidal effect and crop phytotoxicity)
- herbicidal effect, Monochoria vaginalis (Burm. f.) C. Presl [2]: 5 (90% or more of herbicidal effect and crop phytotoxicity)
- herbicidal effect, Scirpus juncoides Roxb. [3]: 4 (70 to less than 90% of herbicidal effect and crop phytotoxicity)

Compound: CCCS(=O)(=O)Oc1c(C(=O)c2ccc(C(F)(F)F)n(Cc3cccc(OC)c3)c2=O)cnn1C [IV-104]
- herbicidal effect, Echinochloa oryzicola Vasing [1]: 5 (90% or more of herbicidal effect and crop phytotoxicity)
- herbicidal effect, Monochoria vaginalis (Burm. f.) C. Presl [2]: 5 (90% or more of herbicidal effect and crop phytotoxicity)
- herbicidal effect, Scirpus juncoides Roxb. [3]: 4 (70 to less than 90% of herbicidal effect and crop phytotoxicity)

Compound: Cn1ncc(C(=O)c2ccc(C(F)(F)F)n(CC3CCCO3)c2=O)c1OC(=O)c1ccc(C(C)(C)C)cc1 (stereo not drawn) [IV-132]
- herbicidal effect, Echinochloa oryzicola Vasing [1]: 5 (90% or more of herbicidal effect and crop phytotoxicity)
- herbicidal effect, Monochoria vaginalis (Burm. f.) C. Presl [2]: 5 (90% or more of herbicidal effect and crop phytotoxicity)
- herbicidal effect, Scirpus juncoides Roxb. [3]: 5 (90% or more of herbicidal effect and crop phytotoxicity)

Compound: Cn1ncc(C(=O)c2ccc(C(F)(F)F)n(CC3CCCO3)c2=O)c1OC(=O)c1c(F)cc(F)cc1F (stereo not drawn) [IV-134]
- herbicidal effect, Echinochloa oryzicola Vasing [1]: 5 (90% or more of herbicidal effect and crop phytotoxicity)
- herbicidal effect, Monochoria vaginalis (Burm. f.) C. Presl [2]: 5 (90% or more of herbicidal effect and crop phytotoxicity)
- herbicidal effect, Scirpus juncoides Roxb. [3]: 5 (90% or more of herbicidal effect and crop phytotoxicity)

Compound: Cc1cc(C)c(C(=O)Oc2c(C(=O)c3ccc(C(F)(F)F)n(CC4CCCO4)c3=O)cnn2C)c(C)c1 (stereo not drawn) [IV-135]
- herbicidal effect, Echinochloa oryzicola Vasing [1]: 5 (90% or more of herbicidal effect and crop phytotoxicity)
- herbicidal effect, Monochoria vaginalis (Burm. f.) C. Presl [2]: 5 (90% or more of herbicidal effect and crop phytotoxicity)
- herbicidal effect, Scirpus juncoides Roxb. [3]: 5 (90% or more of herbicidal effect and crop phytotoxicity)

Compound: Cn1ncc(C(=O)c2ccc(C(F)(F)F)n(CC3CCCO3)c2=O)c1OCc1ccc(C(F)(F)F)cc1 (stereo not drawn) [IV-137]
- herbicidal effect, Echinochloa oryzicola Vasing [1]: 4 (70 to less than 90% of herbicidal effect and crop phytotoxicity)
- herbicidal effect, Monochoria vaginalis (Burm. f.) C. Presl [2]: 4 (70 to less than 90% of herbicidal effect and crop phytotoxicity)
- herbicidal effect, Scirpus juncoides Roxb. [3]: 3 (50 to less than 70% of herbicidal effect and crop phytotoxicity)

Compound: Cc1cccc(COc2c(C(=O)c3ccc(C(F)(F)F)n(CC4CCCO4)c3=O)cnn2C)n1 (stereo not drawn) [IV-138]
- herbicidal effect, Echinochloa oryzicola Vasing [1]: 5 (90% or more of herbicidal effect and crop phytotoxicity)
- herbicidal effect, Monochoria vaginalis (Burm. f.) C. Presl [2]: 5 (90% or more of herbicidal effect and crop phytotoxicity)
- herbicidal effect, Scirpus juncoides Roxb. [3]: 5 (90% or more of herbicidal effect and crop phytotoxicity)

Compound: Cc1ccc(S(=O)(=O)Oc2c(C(=O)c3ccc(C(F)(F)F)n(CC4CCCO4)c3=O)cnn2C)cc1 (stereo not drawn) [IV-141]
- herbicidal effect, Echinochloa oryzicola Vasing [1]: 5 (90% or more of herbicidal effect and crop phytotoxicity)
- herbicidal effect, Monochoria vaginalis (Burm. f.) C. Presl [2]: 5 (90% or more of herbicidal effect and crop phytotoxicity)
- herbicidal effect, Scirpus juncoides Roxb. [3]: 5 (90% or more of herbicidal effect and crop phytotoxicity)

Compound: Cn1ncc(C(=O)c2ccc(C(F)(F)F)n(C)c2=O)c1OCc1ccc(Cl)cc1 [IV-191]
- herbicidal effect, Echinochloa oryzicola Vasing [1]: 5 (90% or more of herbicidal effect and crop phytotoxicity)
- herbicidal effect, Monochoria vaginalis (Burm. f.) C. Presl [2]: 5 (90% or more of herbicidal effect and crop phytotoxicity)
- herbicidal effect, Scirpus juncoides Roxb. [3]: 5 (90% or more of herbicidal effect and crop phytotoxicity)

Compound: Cn1ncc(C(=O)c2ccc(C(F)(F)F)n(C)c2=O)c1OCc1ccc(C(C)(C)C)cc1 [IV-192]
- herbicidal effect, Echinochloa oryzicola Vasing [1]: 5 (90% or more of herbicidal effect and crop phytotoxicity)
- herbicidal effect, Monochoria vaginalis (Burm. f.) C. Presl [2]: 5 (90% or more of herbicidal effect and crop phytotoxicity)
- herbicidal effect, Scirpus juncoides Roxb. [3]: 5 (90% or more of herbicidal effect and crop phytotoxicity)

Compound: Cc1ccc(S(=O)(=O)Oc2c(C(=O)c3ccc(C(F)(F)F)n(C)c3=O)cnn2C)cc1 [IV-194, 4-[1,2-dihydro-1-methyl-2-oxo-6-(trifluoromethyl)pyridine-3-carbonyl]-1-methyl-5-tosyloxy-1H-pyrazole]
- herbicidal effect, Echinochloa oryzicola Vasing [1]: 5 (90% or more of herbicidal effect and crop phytotoxicity)
- herbicidal effect, Monochoria vaginalis (Burm. f.) C. Presl [2]: 5 (90% or more of herbicidal effect and crop phytotoxicity)
- herbicidal effect, Scirpus juncoides Roxb. [3]: 5 (90% or more of herbicidal effect and crop phytotoxicity)

Compound: CCn1ncc(C(=O)c2ccc(C(F)(F)F)n(CC3CCCO3)c2=O)c1OC(=O)c1c(Cl)cc(Cl)cc1Cl (stereo not drawn) [IV-206]
- herbicidal effect, Echinochloa oryzicola Vasing [1]: 5 (90% or more of herbicidal effect and crop phytotoxicity)
- herbicidal effect, Monochoria vaginalis (Burm. f.) C. Presl [2]: 5 (90% or more of herbicidal effect and crop phytotoxicity)
- herbicidal effect, Scirpus juncoides Roxb. [3]: 5 (90% or more of herbicidal effect and crop phytotoxicity)

Compound: CCCn1ncc(C(=O)c2ccc(C(F)(F)F)n(C)c2=O)c1O [IV-213]
- herbicidal effect, Echinochloa oryzicola Vasing [1]: 5 (90% or more of herbicidal effect and crop phytotoxicity)
- herbicidal effect, Monochoria vaginalis (Burm. f.) C. Presl [2]: 5 (90% or more of herbicidal effect and crop phytotoxicity)
- herbicidal effect, Scirpus juncoides Roxb. [3]: 5 (90% or more of herbicidal effect and crop phytotoxicity)

Compound: C=CCn1ncc(C(=O)c2ccc(C(F)(F)F)n(C)c2=O)c1O [IV-225]
- herbicidal effect, Echinochloa oryzicola Vasing [1]: 5 (90% or more of herbicidal effect and crop phytotoxicity)
- herbicidal effect, Monochoria vaginalis (Burm. f.) C. Presl [2]: 5 (90% or more of herbicidal effect and crop phytotoxicity)
- herbicidal effect, Scirpus juncoides Roxb. [3]: 5 (90% or more of herbicidal effect and crop phytotoxicity)

Compound: C=CCn1ncc(C(=O)c2ccc(C(F)(F)F)n(C)c2=O)c1OCc1ccccc1 [IV-228]
- herbicidal effect, Echinochloa oryzicola Vasing [1]: 5 (90% or more of herbicidal effect and crop phytotoxicity)
- herbicidal effect, Monochoria vaginalis (Burm. f.) C. Presl [2]: 5 (90% or more of herbicidal effect and crop phytotoxicity)
- herbicidal effect, Scirpus juncoides Roxb. [3]: 5 (90% or more of herbicidal effect and crop phytotoxicity)

Compound: Cc1ccc(S(=O)(=O)Oc2c(C(=O)c3ccc(C(F)(F)F)n(C)c3=O)c(C)nn2C)cc1 [IV-236]
- herbicidal effect, Echinochloa oryzicola Vasing [1]: 5 (90% or more of herbicidal effect and crop phytotoxicity)
- herbicidal effect, Monochoria vaginalis (Burm. f.) C. Presl [2]: 5 (90% or more of herbicidal effect and crop phytotoxicity)
- herbicidal effect, Scirpus juncoides Roxb. [3]: 5 (90% or more of herbicidal effect and crop phytotoxicity)

Compound: Cc1nn(C)c(O)c1C(=O)c1ccc(C(F)(F)F)n(CC2CCCO2)c1=O (stereo not drawn) [IV-238]
- herbicidal effect, Echinochloa oryzicola Vasing [1]: 4 (70 to less than 90% of herbicidal effect and crop phytotoxicity)
- herbicidal effect, Monochoria vaginalis (Burm. f.) C. Presl [2]: 5 (90% or more of herbicidal effect and crop phytotoxicity)
- herbicidal effect, Scirpus juncoides Roxb. [3]: 5 (90% or more of herbicidal effect and crop phytotoxicity)

Compound: CCCS(=O)(=O)Oc1c(C(=O)c2ccc(C(F)(F)F)n(CC3CCCO3)c2=O)c(C)nn1C (stereo not drawn) [IV-239]
- herbicidal effect, Echinochloa oryzicola Vasing [1]: 5 (90% or more of herbicidal effect and crop phytotoxicity)
- herbicidal effect, Monochoria vaginalis (Burm. f.) C. Presl [2]: 5 (90% or more of herbicidal effect and crop phytotoxicity)
- herbicidal effect, Scirpus juncoides Roxb. [3]: 5 (90% or more of herbicidal effect and crop phytotoxicity)
